{"source": "patent US8003331B2", "about": "“Method for identifying target protein of drug and method for screening therapeutic agent for diabetes using the target protein” (Astellas Pharma Inc., priority 2005, dated 2011)", "key": {"ATP5B": {"biological_target": "T1, ATP5B (Rattus norvegicus, UniProt P10719)", "T1 construct": "a rat skeletal muscle-derived cell, L 6 cell (ATCC); endogenous in cells; host or cells: L6 (rat skeletal muscle)", "assay": "GST-HSPA4 pull-down from L 6 cell extract, silver staining and mass spectrum identification", "assay_type": "binding", "conditions": "phenformin 50 nM added vs no addition", "text": "Using the aforementioned method shown in Example 2(2), attempt was made to screen the target protein of biguanide whose direct target protein has been unclear in spite of its significant drug effect as an agent for treating diabetes. Firstly, a rat skeletal muscle-derived cell, L 6 cell (ATCC), was suspended in a minimum essential medium (αMEM, Invitrogen) containing 10% fetal calf serum (FCS) and cultured on a collagen-coated plate of 15 cm in diameter (Asahi Techno Glass) until reaching the confluent state. The resulting cells were washed twice with 15 ml of ice-cooled phosphate buffer (PBS) and then lysed by adding 2.0 ml of the aforementioned buffer A, and the cell extract was collected using a scraper. […] After 1 hour of shaking at 4° C., the protein binding to the GST-HSPA4 on beads was co-precipitated by centrifugation. In this connection, in order to prevent drop out of the molecular chaperone protein from the beads, the molecular chaperone protein and beads were used by chemically crosslinking them in advance by a conventionally known method. […] As a result, a large protein band of about 60 kDa, in which its amount to bind to the molecular chaperone protein is reduced at the time of adding phenformin in comparison with the case of no addition, was detected. […]"}, "human ATP5B [1]": {"biological_target": "T2, human ATP5B (Homo sapiens, UniProt P06576)", "T2 construct": "an attempt was made to amplify complete length cDNA of human ATP5B; made in house; host or cells: cell-free: TNT Quick Coupled Transcription/Translation System (Promega) from pcDNA-ATP5B; GST-DHFR from E. coli BL21", "assay": "GST-DHFR / MTX-phenformin GST pull-down of 35S-labeled ATP5B", "assay_type": "binding", "conditions": "10 μM MTX-phenformin fixed to GST-DHFR; wild type ATP5B", "procedure": "Promega) and 0.74 MBq of a radioisotope (redivue Pro-mix L-[35S]; Amersham) and in accordance with the protocols attached thereto. A 15 μl portion of this human ATP5B protein preparation liquid and 1 μg for each of the GST protein or GST-DHFR, purified on the glutathione Sepharose beads, were mixed and shaken at 4° C. for 1 hour after adding 0.3 ml of buffer A thereto. Thereafter, the protein binding to the GST protein or GST-DHFR on beads was co-precipitated by centrifugation. After repeating this operation 4 times, proteins in the precipitate were separated by SDS polyacrylamide gel electrophoresis in accordance with a conventionally known method, and the protein bound to the probe was detected by an autoradiography."}, "[2]": {"biological_target": "T3, Glu 175 Val mutation type ATP5B (Homo sapiens, UniProt P06576, E175V)", "T3 construct": "a complete length cDNA of about 1600 base pairs coding for a Glu 175 Val mutation type ATP5B; made in house", "assay": "GST-DHFR / MTX-phenformin pull-down, Glu 175 Val mutation type ATP5B", "assay_type": "binding", "conditions": "pull-down assay as Example 5(4)", "text": "Using the aforementioned expression plasmid pcDNA-ATP5B as the template and using respective sets of primers of the nucleotide sequences represented by SEQ ID NO:87 and SEQ ID NO:81, and SEQ ID NO:80 and SEQ ID NO:88, two DNA fragments of about 530 base pairs of 5′-side and about 1080 base pairs of 3′-side of cDNA having a mutation in which the 175th position of amino acid, Glu, of human ATP5B was replaced by Val were amplified by PCR. All of the PCR reaction, cloning stem and determination of nucleotide sequence were the same as the methods shown in Example 5(1). Using an equivalent mixture of the thus obtained two PCR products as the template, PCR was carried out using the primers represented by SEQ ID NO:80 and SEQ ID NO:81 this time, thereby obtaining a complete length cDNA of about 1600 base pairs coding for a Glu 175 Val mutation type ATP5B. The thus obtained cDNA fragment was cloned into an expression vector (pcDNA3.1/V5-His-TOPO; Invitrogen), and then the nucleotide sequence inserted into the vector was identified using the synthetic primer represented by SEQ ID NO:90 to confirm that the Glu 175 Val mutation was formed in ATP5B. The thus obtained expression plasmid is referred to as pcDNA-ATP5B(E175V) hereinafter. […]"}, "[3]": {"biological_target": "T4, Asp 295 Val mutation type ATP5B (Homo sapiens, UniProt P06576, D295V)", "T4 construct": "a complete length cDNA coding for an Asp 295 Val mutation type ATP5B was obtained; made in house", "assay": "GST-DHFR / MTX-phenformin pull-down, Asp 295 Val mutation type ATP5B", "assay_type": "binding", "conditions": "pull-down assay as Example 5(4)"}, "AMPK": {"tested_on": "AMPK", "assay": "AMPK activation ability detection in HeLa S3 cell (anti-phospho AMPK western blotting)", "assay_type": "cell-based, human", "conditions": "phenformin 1 mM, 1 hr", "procedure": "This expression plasmid pcDNA-LKB1 and the pcDNA-ATP5B prepared in the aforementioned Example 5(1) or an empty vector (pcDNA3.1) (Invitrogen) were transferred into HeLa S3 cell. The HeLa S3 cell (ATCC) was cultured in a 6 well culture plate (35 mm in well diameter) until it reached a state of 70% confluent, by adding 2 ml of a minimum essential medium DMEM (Gibco) containing 10% fetal bovine serum (Sigma) to each well of the culture plate. The medium was substituted by 1 ml per well of a serum-free medium OPTI MEM I (Invitrogen), and 3.0 μg/well of each of the empty vector (pcDNA3.1), pcDNA-LKB1 and pcDNA-ATP5B was transiently transferred using Lipofect amine 2000 (Invitrogen). After 12 hours of the culturing, this was substituted by 2 ml/well of DMEM containing 10% of fetal bovine serum from which low molecular substances had been removed by a charcoal treatment, and further cultured for 36 hours. This was further cultured for 1 hour (1 hr) under a condition of adding phenformin (Sigma) to a final concentration of 1 mM or the solvent (DMSO) alone. The medium was discarded, the cells were washed with a phosphate buffer (to be referred to as PBS hereinafter, and then the cells were lysed by adding 0.15 ml of the aforementioned buffer A (however, the NaCl concentration was 150 mM, and various phosphatase inhibitors; 2 mM Na3VO4, 10 mM NaF, 25 mM β-glycerophosphate, 0.2 mM Na2MoO4, 20 nM okadaic acid, were added). The activity of AMPK in the cells was detected at the level of phosphorylation of molecules by a conventionally known SDS electrophoresis and a western blotting which uses an anti-phosphorylation AMPK antibody (Phospho-AMPK-α(Thr172) Antibody, Daiichi Pure Chemicals). In this case, in order to confirm that there is no difference in the amount of protein of AMPKα (an AMPK subunit which undergoes phosphorylation) among samples, a western blotting which uses an anti-AMPKα antibody (Daiichi Pure Chemicals) was simultaneously carried out. […] However, in the cell in which human ATP5B was expressed by transferring pcDNA-ATP5B, activation of AMPK by phenformin treatment was not found."}, "human ATP5B [4]": {"biological_target": "T2, human ATP5B", "assay": "competitive inhibition of binding of ATP5B and MTX-phenformin", "conditions": "MTX-phenformin 10 μM; free phenformin 10 μM; compounds A and B 'addition of 10'"}}, "note": "Entries after “also recorded” stand apart in the source; their conditions may differ.", "data": [{"smiles": "[H]/N=C(/N)N/C(=N/[H])NCCc1ccccc1", "note": "[phenformin]", "values": [{"measurement": "amount of about 60 kDa protein band (ATP5B) binding to the molecular chaperone protein", "setting": "ATP5B", "value": "reduced"}, {"measurement": "binding with human ATP5B (band of about 60 kDa, autoradiography)", "setting": "human ATP5B [1]", "value": "directly binds; also recorded: able to confirm binding"}, {"measurement": "binding with Glu 175 Val mutation type ATP5B", "setting": "[2]", "value": "not able to confirm the binding; also recorded: disappearance"}, {"measurement": "binding with Asp 295 Val mutation type ATP5B", "setting": "[3]", "value": "not able to confirm the binding; also recorded: disappearance"}, {"measurement": "phosphorylation level (activation) of AMPK", "setting": "AMPK; HeLa S3 cell without ATP5B over-expression (empty vector- or pcDNA-LKB1-transferred), concentration of compounds A and B not given", "value": "significantly accelerated and activated"}, {"measurement": "activation of AMPK in cell over-expressing human ATP5B", "setting": "AMPK; pcDNA-ATP5B-transferred HeLa S3 cell, metformin 10 mM", "value": "not found; also recorded: disappearance"}, {"measurement": "influence on binding of ATP5B and MTX-phenformin", "setting": "human ATP5B [4]", "value": "obstructed"}]}]}
